For the assay, the system named is BDF1 mice, P388 leukemia ip, median survival T/C. Briefly: NCI In Vivo Anticancer Drug Screen. Data for tumor model P388 Leukemia (intraperitoneal) in B6D2F1 (BDF1) mice. Particulars: endpoint: median survival time, higher = longer survival. The method, boiled down:
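Steps: implant the tumour, treat one group with compound and another with vehicle, record survival, then divide treated by control.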

Where [1] appears, read: dose: 25.0 mg/kg/injection, schedule: Q01DX009 (ip), vehicle: Klucel (hydroxypropylcellulose) (HPC).
Where [2] appears, read: dose: 50.0 mg/kg/injection, schedule: Q01DX009 (ip), vehicle: Klucel (hydroxypropylcellulose) (HPC).
Where [3] appears, read: dose: 25.0 mg/kg/injection, schedule: Q01DX009 (ip), vehicle: saline with Tween-80.
[4] abbreviates: dose: 100.0 mg/kg/injection, schedule: Q04DX003 (ip), vehicle: saline with Tween-80.
Setting [5] is: dose: 200.0 mg/kg/injection, schedule: Q04DX003 (ip), vehicle: saline with Tween-80.
The mark [6] stands for this setting: dose: 400.0 mg/kg/injection, schedule: Q04DX003 (ip), vehicle: saline with Tween-80.
Setting [7] is: dose: 100.0 mg/kg/injection, schedule: Q01DX009 (ip), vehicle: saline.
[8] abbreviates: dose: 100.0 mg/kg/injection, schedule: Q04DX003 (ip), vehicle: saline.
The mark [9] stands for this setting: dose: 200.0 mg/kg/injection, schedule: Q01DX009 (ip), vehicle: saline.
Setting [10] is: dose: 200.0 mg/kg/injection, schedule: Q04DX003 (ip), vehicle: saline.
The mark [11] stands for this setting: dose: 50.0 mg/kg/injection, schedule: Q01DX009 (ip), vehicle: saline with Tween-80.
The mark [12] stands for this setting: dose: 100.0 mg/kg/injection, schedule: Q01DX009 (ip), vehicle: saline with Tween-80.
[13] abbreviates: dose: 200.0 mg/kg/injection, schedule: Q01DX009 (ip), vehicle: saline with Tween-80.

“And” between values parts separate entries of the source, which are not always exact repeats. Identical values can stand only once. Toxic doses and inconclusive results are not listed. Residues, ends and D or L forms follow the SMILES beside them.

`CC(Cc1ccc2ccccc2c1)C(=O)c1ccc2ccccc2c1` (stereo not drawn): the T/C by setting is: (dose: 100.0 mg/kg/injection, schedule: Q01DX001 (ip), vehicle: saline with Tween-80) 100 % of control; (dose: 200.0 mg/kg/injection, schedule: Q01DX001 (ip), vehicle: saline with Tween-80) 100 % of control; (dose: 400.0 mg/kg/injection, schedule: Q01DX001 (ip), vehicle: saline with Tween-80) 100 % of control.

For the molecule `O=C(NNc1ccccc1)OCc1ccccc1`, the T/C (dose: 12.5 mg/kg/injection, schedule: Q01DX009 (ip), vehicle: Klucel (hydroxypropylcellulose) (HPC)) is 100 % of control; the T/C under setting [1] was 115 % of control; the T/C under setting [2] is 110 % of control; the T/C (dose: 75.0 mg/kg/injection, schedule: Q04DX003 (ip), vehicle: Klucel (hydroxypropylcellulose) (HPC)) is 95 % of control; the T/C (dose: 150.0 mg/kg/injection, schedule: Q04DX003 (ip), vehicle: Klucel (hydroxypropylcellulose) (HPC)) is 100 % of control; the T/C (dose: 300.0 mg/kg/injection, schedule: Q04DX003 (ip), vehicle: Klucel (hydroxypropylcellulose) (HPC)) was 90 % of control.

Turning to `O=[N+]([O-])c1ccc(/C=C/C=C\c2cccc(S(=O)(=O)F)c2)c(Cl)c1`, the T/C is 90 % of control and 104 % of control (dose: 100.0 mg/kg/injection, schedule: Q01DX001 (ip), vehicle: Klucel (hydroxypropylcellulose) (HPC)); 112 % of control (dose: 100.0 mg/kg/injection, schedule: Q01DX009 (ip), vehicle: acetone); 93 % of control and 100 % of control (dose: 200.0 mg/kg/injection, schedule: Q01DX001 (ip), vehicle: Klucel (hydroxypropylcellulose) (HPC)); 108 % of control (dose: 200.0 mg/kg/injection, schedule: Q01DX009 (ip), vehicle: acetone); 100 % of control and 106 % of control (dose: 400.0 mg/kg/injection, schedule: Q01DX001 (ip), vehicle: Klucel (hydroxypropylcellulose) (HPC)); 95 % of control (dose: 400.0 mg/kg/injection, schedule: Q01DX009 (ip), vehicle: acetone).

On to `CC(=O)NC(C)C(=O)NC(C)C(=O)NC(C)C(=O)NC(C)C(=O)O` (stereo not drawn) (Ac-AAAA-OH; configuration not given here), for which the T/C (dose: 50.0 mg/kg/injection, schedule: Q01DX005 (ip), vehicle: saline with Tween-80) was 98 % of control and the T/C (dose: 100.0 mg/kg/injection, schedule: Q01DX005 (ip), vehicle: saline with Tween-80) was 95 % of control.

For `O=C1NNC(c2ccccc2)C1(Cl)Cl` (stereo not drawn), the T/C is 114 % of control (dose: 12.5 mg/kg/injection, schedule: Q01DX009 (ip), vehicle: saline with Tween-80) and 99 % of control under setting [3].

Consider `CCc1ccc(NC(=O)c2ccccc2C(=O)O)cc1`, for which the T/C is, setting by setting: under setting [4], 122 % of control; under setting [5], 104 % of control; under setting [6], 109 % of control.

As to `COc1cc2cc(-c3cc(OC)c(OC)c(OC)c3)c3c(c2cc1OC)CNC3=O`, the T/C was 110 % of control under setting [7]; 101 % of control under setting [8]; 112 % of control under setting [9]; 108 % of control under setting [10]; 91 % of control (dose: 400.0 mg/kg/injection, schedule: Q01DX009 (ip), vehicle: saline); 100 % of control (dose: 400.0 mg/kg/injection, schedule: Q04DX003 (ip), vehicle: saline).

With `CC1(c2ccco2)NC(=O)N(Cl)C1=O` (stereo not drawn), the T/C is 89 % of control (dose: 50.0 mg/kg/injection, schedule: Q01DX009 (ip), vehicle: saline); 98 % of control under setting [7]; 105 % of control under setting [9].

As for `C=C(NC(C)=O)C(=O)O`, the T/C is 108 % of control (dose: 20.0 mg/kg/injection, schedule: Q04DX003 (ip), vehicle: Klucel (hydroxypropylcellulose) (HPC)); 104 % of control under setting [1]; 108 % of control (dose: 40.0 mg/kg/injection, schedule: Q04DX003 (ip), vehicle: Klucel (hydroxypropylcellulose) (HPC)); 104 % of control under setting [2]; 86 % of control (dose: 80.0 mg/kg/injection, schedule: Q04DX003 (ip), vehicle: Klucel (hydroxypropylcellulose) (HPC)); 90 % of control (dose: 100.0 mg/kg/injection, schedule: Q01DX009 (ip), vehicle: Klucel (hydroxypropylcellulose) (HPC)). Also, the T/C (dose: 100.0 mg/kg/injection, schedule: Q04DX003 (ip), vehicle: Klucel (hydroxypropylcellulose) (HPC)) is 95 % of control.

As for `Nc1ncccc1C1CCCS1` (stereo not drawn), the T/C (dose: 50.0 mg/kg/injection, schedule: Q04DX002 (ip), vehicle: saline with Tween-80) is 104 % of control; the T/C (dose: 100.0 mg/kg/injection, schedule: Q04DX002 (ip), vehicle: saline with Tween-80) is 98 % of control; the T/C (dose: 200.0 mg/kg/injection, schedule: Q04DX002 (ip), vehicle: saline with Tween-80) was 91 % of control.

Take `Cc1cccn2c(CCc3nnc4c(C)cccn34)nnc12`: the T/C under setting [11] was 97 % of control, the T/C under setting [12] was 93 % of control and the T/C under setting [13] was 89 % of control.

As to `CCC(=O)Oc1ccc2c(c1)CC[C@@H]1[C@@H]2CC[C@]2(C)C[C@H](OC(=O)CC)C[C@@H]12`, the T/C is, setting by setting: under setting [12], 100 % of control; under setting [4], 95 % of control; under setting [13], 118 % of control; under setting [5], 100 % of control; (dose: 400.0 mg/kg/injection, schedule: Q01DX009 (ip), vehicle: saline with Tween-80) 118 % of control; under setting [6], 90 % of control.

Take `NC(Cc1ccc(N(CCCl)CCCl)cc1)C(=O)O` (stereo not drawn): the T/C is 179 % of control (dose: 0.5 mg/kg/injection, schedule: Q01DX009 (ip), vehicle: Klucel (hydroxypropylcellulose) (HPC)); 222 % of control (dose: 1.0 mg/kg/injection, schedule: Q01DX009 (ip), vehicle: Klucel (hydroxypropylcellulose) (HPC)); 181 % of control and 208 % of control (dose: 1.25 mg/kg/injection, schedule: Q01DX010 (ip), vehicle: saline); 239 % of control (dose: 2.0 mg/kg/injection, schedule: Q01DX009 (ip), vehicle: Klucel (hydroxypropylcellulose) (HPC)); 300 % of control (dose: 2.0 mg/kg/injection, schedule: Q01DX010 (ip), vehicle: other); 209 % of control and 216 % of control (dose: 2.5 mg/kg/injection, schedule: Q01DX010 (ip), vehicle: saline). For the same molecule, the T/C is, setting by setting: (dose: 4.0 mg/kg/injection, schedule: Q01DX009 (ip), vehicle: Klucel (hydroxypropylcellulose) (HPC)) 256 % of control; (dose: 4.0 mg/kg/injection, schedule: Q01DX010 (ip), vehicle: other) 250 % of control; (dose: 5.0 mg/kg/injection, schedule: Q01DX010 (ip), vehicle: saline) 233 % of control and 286 % of control; (dose: 8.0 mg/kg/injection, schedule: Q01DX010 (ip), vehicle: other) 113 % of control; (dose: 10.0 mg/kg/injection, schedule: Q01DX010 (ip), vehicle: saline) 100 % of control; (dose: 16.0 mg/kg/injection, schedule: Q01DX010 (ip), vehicle: other) 90 % of control.

In the case of `CC(C)CCNc1ncnc2c1cnn2C`, the T/C runs as follows: under setting [3], 100 % of control; under setting [11], 100 % of control; under setting [12], 109 % of control.

On to `Cn1cnc([N+](=O)[O-])c1[Se]c1ncnc2c1ncn2C1OC(CO)C(O)C1O` (stereo not drawn), for which the T/C is 105 % of control (dose: 6.25 mg/kg/injection, schedule: Q01DX009 (ip), vehicle: saline); 113 % of control (dose: 12.5 mg/kg/injection, schedule: Q01DX009 (ip), vehicle: saline); 113 % of control (dose: 12.5 mg/kg/injection, schedule: Q04DX003 (ip), vehicle: saline); 102 % of control (dose: 25.0 mg/kg/injection, schedule: Q01DX009 (ip), vehicle: saline); 100 % of control and 104 % of control (dose: 25.0 mg/kg/injection, schedule: Q04DX003 (ip), vehicle: saline); 100 % of control and 113 % of control (dose: 50.0 mg/kg/injection, schedule: Q04DX003 (ip), vehicle: saline). The T/C under setting [8] was 100 % of control and the T/C under setting [10] is 100 % of control.
